Data as given in US12435044B2, “Pyridazinone herbicides and pyridazinone intermediates used to prepare a herbicide” (FMC Corporation, priority 2018, dated 2025).

How the values were obtained:
Assay type in all cases: in vivo
Conditions in all cases: scale 0 to 100
[1] = tested on: ryegrass, Italian (Lolium multiflorum); test: Test C pre-/postemergence greenhouse test
How it was run: (§1)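 Seeds sown in silt loam soil and sprayed preemergence with test chemicals in a non-phytotoxic solvent mixture containing surfactant. Postemergence plants, 2 to 18 cm (1- to 4-leaf stage), grown in peat/vermiculite planting medium and treated with the same formulation. Visual injury rated 0–100 versus untreated controls after 13 to 21 d in the greenhouse.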

[2] = tested on: johnsongrass (Sorghum halepense); test: Test C pre-/postemergence greenhouse test
How it was run: as §1

[3] = tested on: barnyardgrass (Echinochloa crus-galli); test: Test C pre-/postemergence greenhouse test
How it was run: as §1

[4] = tested on: crabgrass, large (Digitaria sanguinalis); test: Test C pre-/postemergence greenhouse test
How it was run: as §1

[5] = tested on: wheat, winter (winter wheat, Triticum aestivum); test: Test C pre-/postemergence greenhouse test
How it was run: as §1

[6] = tested on: foxtail, giant (Setaria faberii); test: Test C pre-/postemergence greenhouse test
How it was run: as §1

[7] = tested on: blackgrass (Alopecurus myosuroides); test: Test C pre-/postemergence greenhouse test
How it was run: as §1

[8] = tested on: poinsettia, wild (Euphorbia heterophylla); test: Test C pre-/postemergence greenhouse test
How it was run: as §1

[9] = tested on: surinam grass (Brachiaria decumbens); test: Test C pre-/postemergence greenhouse test
How it was run: as §1

[10] = tested on: chickweed (common chickweed, Stellaria media); test: Test C postemergence greenhouse test
Excerpt: (§2) Seeds of plant species selected from blackgrass (Alopecurus myosuroides), ryegrass, Italian (Lolium multiflorum), wheat, winter (winter wheat, Triticum aestivum), galium (catchweed bedstraw, Galium aparine), corn (Zea mays), crabgrass, large (Digitaria sanguinalis), foxtail, giant (Setaria faberii), johnsongrass (Sorghum halepense), lambsquarters (Chenopodium album), morningglory (Ipomoea coccinea), nutsedge, yellow (Cyperus esculentus), pigweed (Amaranthus retroflexus), ragweed (common ragweed, Ambrosia elatior), soybean (Glycine max), barnyardgrass (Echinochloa crus-galli), oilseed rape (Brassica napus), waterhemp (common waterhemp, Amaranthus rudis), pigweed, palmer (Amaranthus palmeri), kochia (Kochia scoparia), oat, wild (Avena fatua), surinam grass (Brachiaria decumbens), windgrass (Apera spica-venti), poinsettia, wild (Euphorbia heterophylla) and velvetleaf (Abutilon theophrasti) were planted into a silt loam soil and treated preemergence with test chemicals formulated in a non-phytotoxic solvent mixture which included a surfactant.
(§3) At the same time, plants selected from these crop and weed species and also chickweed (common chickweed, Stellaria media), buckwheat, wild (Polygonum convolvulus), mustard, wild (Sinapis arvensis), field poppy (Papaver rhoeas), field violet (Viola arvensis), nightshade (eastern black nightshade, Solanum ptycanthum), speedwell (bird's-eye speedwell, Veronica persica), horseweed (Conyza canadensis), cutleaf geranium (Geranium dissectum), and Canada thistle (Cirsium arvense) were planted in pots containing Redi-Earth® planting medium (Scotts Company, 14111 Scottslawn Road, Marysville, Ohio 43041) comprising spaghnum peat moss, vermiculite, wetting agent and starter nutrients and treated with postemergence applications of test chemicals formulated in the same manner. Plants ranged in height from 2 to 18 cm (1- to 4-leaf stage) for postemergence treatments. Treated plants and controls were maintained in a greenhouse for 13 to 21 d, after which time all species were compared to controls and visually evaluated. Plant response ratings, summarized in Table C-1 (postemergence) and C-2 (preemergence), are based on a scale of 0 to 100 where 0 is no effect and 100 is complete control. A dash (-) response means no test result.

[11] = tested on: field poppy (Papaver rhoeas); test: Test C postemergence greenhouse test
Excerpt: as §2, §3

SMILES: Cc1ccc2ccc(Cl)cc2c1-c1c(O)c(Cl)nn(C)c1=O [Cpd. No. 22]
- Plant response rating, Ryegrass, Italian ([1]; Postemergence, 16 g ai/ha): 70
- Plant response rating, Ryegrass, Italian ([1]; Postemergence, 31 g ai/ha): 85
- Plant response rating, Ryegrass, Italian ([1]; Postemergence, 62 g ai/ha): 95
- Plant response rating, Ryegrass, Italian ([1]; Postemergence, 125 g ai/ha): 100
- Plant response rating, Ryegrass, Italian ([1]; Preemergence, 31 g ai/ha): 25
- Plant response rating, Ryegrass, Italian ([1]; Preemergence, 61 g ai/ha): 5
- Plant response rating, Ryegrass, Italian ([1]; Preemergence, 62 g ai/ha): 98
- Plant response rating, Ryegrass, Italian ([1]; Preemergence, 125 g ai/ha): 90
- Plant response rating, Johnsongrass ([2]; Postemergence, 16 g ai/ha): 20
- Plant response rating, Johnsongrass ([2]; Postemergence, 31 g ai/ha): 40
- Plant response rating, Johnsongrass ([2]; Postemergence, 62 g ai/ha): 50
- Plant response rating, Johnsongrass ([2]; Postemergence, 125 g ai/ha): 60
- Plant response rating, Johnsongrass ([2]; Preemergence, 31 g ai/ha): 30
- Plant response rating, Johnsongrass ([2]; Preemergence, 61 g ai/ha): 5
- Plant response rating, Johnsongrass ([2]; Preemergence, 62 g ai/ha): 50
- Plant response rating, Johnsongrass ([2]; Preemergence, 125 g ai/ha): 70
- Plant response rating, Barnyardgrass ([3]; Postemergence, 16 g ai/ha): 85
- Plant response rating, Barnyardgrass ([3]; Postemergence, 31 g ai/ha): 90
- Plant response rating, Barnyardgrass ([3]; Postemergence, 62 g ai/ha): 95
- Plant response rating, Barnyardgrass ([3]; Postemergence, 125 g ai/ha): 95
- Plant response rating, Barnyardgrass ([3]; Preemergence, 31 g ai/ha): 65
- Plant response rating, Barnyardgrass ([3]; Preemergence, 61 g ai/ha): 5
- Plant response rating, Barnyardgrass ([3]; Preemergence, 62 g ai/ha): 85
- Plant response rating, Barnyardgrass ([3]; Preemergence, 125 g ai/ha): 100
- Plant response rating, Crabgrass, Large ([4]; Postemergence, 16 g ai/ha): 10
- Plant response rating, Crabgrass, Large ([4]; Postemergence, 31 g ai/ha): 25
- Plant response rating, Crabgrass, Large ([4]; Postemergence, 62 g ai/ha): 15
- Plant response rating, Crabgrass, Large ([4]; Postemergence, 125 g ai/ha): 60
- Plant response rating, Crabgrass, Large ([4]; Preemergence, 31 g ai/ha): 25
- Plant response rating, Crabgrass, Large ([4]; Preemergence, 61 g ai/ha): 5
- Plant response rating, Crabgrass, Large ([4]; Preemergence, 62 g ai/ha): 75
- Plant response rating, Crabgrass, Large ([4]; Preemergence, 125 g ai/ha): 85
- Plant response rating, Wheat ([5]; Postemergence, 16 g ai/ha): 85
- Plant response rating, Wheat ([5]; Postemergence, 31 g ai/ha): 90
- Plant response rating, Wheat ([5]; Postemergence, 62 g ai/ha): 90
- Plant response rating, Wheat ([5]; Postemergence, 125 g ai/ha): 95
- Plant response rating, Wheat ([5]; Preemergence, 31 g ai/ha): 85
- Plant response rating, Wheat ([5]; Preemergence, 61 g ai/ha): 60
- Plant response rating, Wheat ([5]; Preemergence, 62 g ai/ha): 95
- Plant response rating, Wheat ([5]; Preemergence, 125 g ai/ha): 100
- Plant response rating, Foxtail, Giant ([6]; Postemergence, 16 g ai/ha): 85
- Plant response rating, Foxtail, Giant ([6]; Postemergence, 31 g ai/ha): 90
- Plant response rating, Foxtail, Giant ([6]; Postemergence, 62 g ai/ha): 95
- Plant response rating, Foxtail, Giant ([6]; Postemergence, 125 g ai/ha): 98
- Plant response rating, Foxtail, Giant ([6]; Preemergence, 31 g ai/ha): 80
- Plant response rating, Foxtail, Giant ([6]; Preemergence, 61 g ai/ha): 0
- Plant response rating, Foxtail, Giant ([6]; Preemergence, 62 g ai/ha): 100
- Plant response rating, Foxtail, Giant ([6]; Preemergence, 125 g ai/ha): 100
- Plant response rating, Blackgrass ([7]; Postemergence, 16 g ai/ha): 70
- Plant response rating, Blackgrass ([7]; Postemergence, 31 g ai/ha): 85
- Plant response rating, Blackgrass ([7]; Postemergence, 62 g ai/ha): 90
- Plant response rating, Blackgrass ([7]; Postemergence, 125 g ai/ha): 100
- Plant response rating, Blackgrass ([7]; Preemergence, 31 g ai/ha): 25
- Plant response rating, Blackgrass ([7]; Preemergence, 61 g ai/ha): 5
- Plant response rating, Blackgrass ([7]; Preemergence, 62 g ai/ha): 30
- Plant response rating, Blackgrass ([7]; Preemergence, 125 g ai/ha): 85
- Plant response rating, Poinsettia, Wild ([8]; Postemergence, 16 g ai/ha): 25
- Plant response rating, Poinsettia, Wild ([8]; Postemergence, 31 g ai/ha): 25
- Plant response rating, Poinsettia, Wild ([8]; Postemergence, 62 g ai/ha): 40
- Plant response rating, Poinsettia, Wild ([8]; Postemergence, 125 g ai/ha): 35
- Plant response rating, Poinsettia, Wild ([8]; Preemergence, 31 g ai/ha): 5
- Plant response rating, Poinsettia, Wild ([8]; Preemergence, 61 g ai/ha): 5
- Plant response rating, Poinsettia, Wild ([8]; Preemergence, 62 g ai/ha): 10
- Plant response rating, Poinsettia, Wild ([8]; Preemergence, 125 g ai/ha): 35
- Plant response rating, Surinam Grass ([9]; Postemergence, 16 g ai/ha): 80
- Plant response rating, Surinam Grass ([9]; Postemergence, 31 g ai/ha): 85
- Plant response rating, Surinam Grass ([9]; Postemergence, 62 g ai/ha): 95
- Plant response rating, Surinam Grass ([9]; Postemergence, 125 g ai/ha): 95
- Plant response rating, Surinam Grass ([9]; Preemergence, 31 g ai/ha): 90
- Plant response rating, Surinam Grass ([9]; Preemergence, 61 g ai/ha): 75
- Plant response rating, Surinam Grass ([9]; Preemergence, 62 g ai/ha): 95
- Plant response rating, Surinam Grass ([9]; Preemergence, 125 g ai/ha): 100
- Plant response rating, Chickweed ([10]; 16 g ai/ha): 100
- Plant response rating, Chickweed ([10]; 31 g ai/ha): 98
- Plant response rating, Chickweed ([10]; 62 g ai/ha): 100
- Plant response rating, Chickweed ([10]; 125 g ai/ha): 100
- Plant response rating, Field Poppy ([11]; 16 g ai/ha): 75
- Plant response rating, Field Poppy ([11]; 31 g ai/ha): 75
- Plant response rating, Field Poppy ([11]; 62 g ai/ha): 75
- Plant response rating, Field Poppy ([11]; 125 g ai/ha): 100
